In one data set the target is T1, Syk (Homo sapiens, UniProt P43405).
T1 construct: purchased BPS Bioscience, CA, USA
The experiment in a line: Syk enzyme assay (SYK flash plate assay / Caliper mobility shift). The format is biochemical. The method, boiled down: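 Flashplate format: 2.5 nM SYK, 400 nM biotinylated peptide, 10 μM ATP with 33P-ATP, pH 7.5, 1 h at 30 °C; radioactivity read, staurosporine background. Caliper format: 90 min at 25 °C, mobility-shift read of substrate-to-product conversion; IC50 from dose-response curve.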

In data set [1] the test system is BLNK phosphorylation in Ramos cells. The data set can be described thus: BCR crosslinking-induced BLNK phosphorylation (BLNK cell assay). The format is cell-based. As to conditions: Homo sapiens. As for the experimental part:
1. BCR Crosslinking-Induced BLNK Phosphorylation
Ramos cells incubated overnight in IMDM medium containing 5% FCS were resuspended in IMDM medium without serum (3.3×10^6 cells/ml). 90 μl of cell suspension (300′000 cells) were incubated with 10 μl of SYK inhibitors (in 3% DMSO) for 20 minutes at 37° C., in 96 well plates. After preincubation with inhibitors, cells were activated with 10 μg/ml of goat antihuman anti-IgM for 10 minutes at 37° C. After stimulation, cells were fixed by addition of 80 μl of 4% paraformaldehyde followed by a 10 minutes incubation at RT and […] in 0.1% Triton X-100 in PBS. BLNK phosphorylation was detected by flow cytometry after staining of the cells with anti-BLNK-pY84-PE antibodies from BD pharmingen, for 45 minutes at RT.
BLNK phosphorylation in CD19^+ peripheral blood mononuclear cells (PBMC) isolated from buffy coats of healthy volunteers was performed using the same protocol and staining the cells with a mixture of anti-BLNK-pY84-PE, anti CD-19 PerCp and Anti-IgM APC antibodies from BD Pharmingen.

For a further data set, the target named is T2, KDR (Homo sapiens, UniProt P35968).
T2 construct: purchased BPS Bioscience, CA, USA
T2 sequence (P35968 20-1356): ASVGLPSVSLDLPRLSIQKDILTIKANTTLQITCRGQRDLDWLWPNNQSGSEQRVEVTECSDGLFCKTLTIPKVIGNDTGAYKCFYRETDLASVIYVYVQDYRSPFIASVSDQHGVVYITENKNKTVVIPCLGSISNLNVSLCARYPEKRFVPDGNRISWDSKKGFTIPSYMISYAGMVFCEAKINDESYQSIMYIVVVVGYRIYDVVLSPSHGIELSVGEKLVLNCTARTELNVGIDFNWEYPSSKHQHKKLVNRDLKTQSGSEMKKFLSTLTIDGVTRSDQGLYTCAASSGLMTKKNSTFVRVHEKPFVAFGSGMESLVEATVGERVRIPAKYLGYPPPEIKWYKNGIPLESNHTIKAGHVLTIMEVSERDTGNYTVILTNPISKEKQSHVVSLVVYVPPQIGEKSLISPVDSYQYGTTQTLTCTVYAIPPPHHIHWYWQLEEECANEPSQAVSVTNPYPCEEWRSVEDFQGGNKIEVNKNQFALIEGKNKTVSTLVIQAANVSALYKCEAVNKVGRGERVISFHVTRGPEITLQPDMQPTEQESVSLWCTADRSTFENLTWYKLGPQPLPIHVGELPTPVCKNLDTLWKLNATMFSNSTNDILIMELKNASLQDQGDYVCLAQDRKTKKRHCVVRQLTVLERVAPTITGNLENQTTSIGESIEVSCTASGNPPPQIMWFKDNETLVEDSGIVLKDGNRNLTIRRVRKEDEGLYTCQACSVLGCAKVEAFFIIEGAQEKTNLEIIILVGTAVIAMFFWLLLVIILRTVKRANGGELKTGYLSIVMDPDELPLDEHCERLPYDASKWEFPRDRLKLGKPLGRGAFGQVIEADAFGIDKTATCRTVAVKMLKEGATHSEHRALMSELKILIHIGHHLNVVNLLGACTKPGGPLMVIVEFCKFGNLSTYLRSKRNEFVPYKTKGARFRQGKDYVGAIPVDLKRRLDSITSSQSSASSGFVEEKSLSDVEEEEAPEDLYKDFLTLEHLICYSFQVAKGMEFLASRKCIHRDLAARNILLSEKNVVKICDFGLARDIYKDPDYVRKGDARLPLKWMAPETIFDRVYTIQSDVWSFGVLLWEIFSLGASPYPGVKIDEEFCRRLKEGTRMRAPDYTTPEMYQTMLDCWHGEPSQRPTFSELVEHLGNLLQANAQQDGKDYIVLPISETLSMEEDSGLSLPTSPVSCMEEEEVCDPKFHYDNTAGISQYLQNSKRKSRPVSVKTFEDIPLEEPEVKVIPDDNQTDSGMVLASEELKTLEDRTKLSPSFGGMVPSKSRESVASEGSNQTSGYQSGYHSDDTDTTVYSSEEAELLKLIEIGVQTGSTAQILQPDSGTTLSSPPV
The experiment in a line: KDR enzymatic assay (Caliper LifeSciences technology). The format is biochemical. The method in brief:
(§1)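 Off-chip mobility-shift assay measuring conversion of a fluorescently labelled peptide substrate, in 100 mM HEPES pH 7.5, 1 mM DTT, 1 mM MgCl2 and 0.015% Brij-35. Reactions ran 90 min at 25 C and were stopped with EDTA. IC50s were derived from percent-conversion dose-response curves.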

In the next data set the target is T3, BTK (Homo sapiens, UniProt Q06187).
T3 construct: purchased Carna Bioscience, Kobe, Japan
T3 sequence (Q06187 whole entry): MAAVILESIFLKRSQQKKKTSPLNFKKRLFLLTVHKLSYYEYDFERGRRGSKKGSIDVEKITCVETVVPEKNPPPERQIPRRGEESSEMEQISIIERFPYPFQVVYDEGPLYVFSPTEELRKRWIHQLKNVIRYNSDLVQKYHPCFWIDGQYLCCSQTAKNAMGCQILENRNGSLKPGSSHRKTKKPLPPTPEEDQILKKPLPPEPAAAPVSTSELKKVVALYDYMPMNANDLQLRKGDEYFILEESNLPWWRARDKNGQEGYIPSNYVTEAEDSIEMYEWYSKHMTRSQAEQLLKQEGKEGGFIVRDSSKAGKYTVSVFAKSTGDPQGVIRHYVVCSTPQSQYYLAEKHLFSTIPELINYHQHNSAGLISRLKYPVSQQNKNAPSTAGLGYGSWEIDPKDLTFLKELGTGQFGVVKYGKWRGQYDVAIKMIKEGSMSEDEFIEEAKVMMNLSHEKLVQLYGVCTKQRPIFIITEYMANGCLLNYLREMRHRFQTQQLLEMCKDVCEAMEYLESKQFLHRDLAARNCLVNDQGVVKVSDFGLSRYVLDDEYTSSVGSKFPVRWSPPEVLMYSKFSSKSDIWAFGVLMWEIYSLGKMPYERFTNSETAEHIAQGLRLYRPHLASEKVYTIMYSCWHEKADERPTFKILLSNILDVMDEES
The experiment in a line: BTK enzymatic assay (Caliper LifeSciences technology). The format is biochemical. As for the experimental part:
(§2) The assays described here are performed on the Caliper Life Sciences LC3000 system This technology provides data on enzyme activity via measurement of the relative amounts of phosphorylated or unphosphorylated fluorescently labelled substrate peptide at the end of an enzymatic reaction. These different states of peptide are resolved by applying a potential difference across the sample. The presence of the charged phosphate group on the product (as opposed to the substrate) causes a different peptide mobility between the two peptides. This is visualized by excitation of the fluorescent label on the substrate and product peptides and represented as peaks within the analysis software.
(§3) In order to measure inhibitor activity of kinase inhibitors on this technology, a TTP Mosquito liquid handling instrument is used to place 0.25 ul of the appropriate concentration of inhibitor in 100% DMSO (for a dose response curve calculation) into each well of a 384-well plate. To this reaction components are added to a final volume of 25 ul. The table below indicates the sequences and concentrations for the assays described in this report. Standard components are 1 mM DTT (Sigma, D0632), 1 mM MgCl2 (Sigma, M1028), 100 mM HEPES pH 7.5 (Calbiochem, 391338), 0.015% Brij-35 (Sigma, B4184).
(§4) The reaction is incubated for 90 min at 25 C, and then stopped by the addition of 70 ul of Stop buffer (100 mM HEPES pH 7.5, 0.015% Brij-35, 10 mM EDTA (Sigma, E7889)).
(§5) The plate is read on a Caliper LC 3000 in an Off-Chip mobility shift assay format, on a 12-sipper chip. Unphosphorylated substrate and phosphorylated product peptide resolve as separate peaks allowing direct measurement of percentage of conversion of substrate to product. The percent conversion can be plotted against concentration of inhibitor to produce a sigmoidal dose response curve, from which an IC50 can be calculated using GeneData Condoseo or a similar product.

For the next data set, the target named is T4, SRC (Homo sapiens, UniProt P12931).
T4 construct: purchased Carna Bioscience, Kobe, Japan
T4 sequence (P12931 whole entry): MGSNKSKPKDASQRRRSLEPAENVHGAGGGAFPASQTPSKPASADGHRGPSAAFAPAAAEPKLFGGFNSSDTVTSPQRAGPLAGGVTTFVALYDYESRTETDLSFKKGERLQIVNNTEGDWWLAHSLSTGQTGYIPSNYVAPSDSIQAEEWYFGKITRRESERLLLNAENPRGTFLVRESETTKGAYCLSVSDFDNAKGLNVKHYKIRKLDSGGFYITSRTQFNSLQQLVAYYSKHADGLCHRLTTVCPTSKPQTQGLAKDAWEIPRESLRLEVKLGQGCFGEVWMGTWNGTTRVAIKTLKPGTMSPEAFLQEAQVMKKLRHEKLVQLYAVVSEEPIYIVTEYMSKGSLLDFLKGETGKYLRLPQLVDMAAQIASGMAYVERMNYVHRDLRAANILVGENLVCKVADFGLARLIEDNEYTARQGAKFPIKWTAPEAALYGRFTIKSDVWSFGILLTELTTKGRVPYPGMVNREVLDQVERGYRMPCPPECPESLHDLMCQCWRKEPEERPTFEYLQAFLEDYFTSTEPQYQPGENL
The experiment in a line: Src enzymatic assay (Caliper LifeSciences technology). The format is biochemical. The method in brief: as §1

The next data set addresses T5, Zap70 (Homo sapiens, UniProt P43403).
T5 construct: purchased BPS Bioscience, CA, USA
T5 sequence (P43403 1-619): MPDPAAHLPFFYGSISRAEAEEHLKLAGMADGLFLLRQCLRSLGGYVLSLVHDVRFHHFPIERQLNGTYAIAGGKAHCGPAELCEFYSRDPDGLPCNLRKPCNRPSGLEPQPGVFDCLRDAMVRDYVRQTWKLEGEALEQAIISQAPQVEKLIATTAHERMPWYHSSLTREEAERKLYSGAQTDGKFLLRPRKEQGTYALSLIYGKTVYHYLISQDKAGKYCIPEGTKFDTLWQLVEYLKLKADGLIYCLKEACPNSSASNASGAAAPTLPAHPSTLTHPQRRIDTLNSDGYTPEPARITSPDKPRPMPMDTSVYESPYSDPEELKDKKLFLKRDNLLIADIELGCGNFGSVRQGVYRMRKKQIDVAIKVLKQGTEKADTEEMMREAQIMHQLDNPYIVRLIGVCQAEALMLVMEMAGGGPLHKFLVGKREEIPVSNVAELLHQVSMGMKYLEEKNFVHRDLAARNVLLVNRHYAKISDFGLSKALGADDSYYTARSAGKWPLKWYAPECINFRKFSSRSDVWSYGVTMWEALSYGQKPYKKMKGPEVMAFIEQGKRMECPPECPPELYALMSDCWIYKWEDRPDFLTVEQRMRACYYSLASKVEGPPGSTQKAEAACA
The data set can be described thus: ZAP-70 enzymatic assay (Caliper LifeSciences technology). The format is biochemical. As for the experimental part:
as §2, §3, §4, §5

In data set [2] the test system is RA Phase II studies in humans. As to conditions: cited from earlier work.
A further data set relates to murine model of RA. As to conditions: cited from earlier work.

As for `COc1cc(-c2cc3nccc(-c4ccccc4)c3o2)cc(OC)c1OC` [Compound A5, 7-Phenyl-2-(3,4,5-trimethoxy-phenyl)-furo[3,2-b]pyridine], the IC50 at Syk was under 300 nM; in data set [1] it was 3000 to 50000 nM.
Turning to `COc1cc(-c2cc3nccc(Nc4ccc5cn[nH]c5c4)c3o2)cc(OC)c1OC` [Compound B15], the IC50 at KDR lay in the range of 300 to 3000 nM; against BTK, 3 to 50 µM; on Syk, 300 to 3000 nM; against SRC, 3000 to 50000 nM; at Zap70 it was 3 to 50 µM.
For `COc1cc(-c2cc3nccc(Nc4ccc5[nH]ccc5c4C)c3o2)cc(OC)c1OC` [Compound B22], the IC50 against KDR is under 300 nM; against BTK, 0.3 to 3 µM; on Syk, under 300 nM; on SRC, under 300 nM; in data set [1], 3000 to 50000 nM.
On to `COc1cc(-c2cc3nccc(Nc4ccc5[nH]ccc5c4)c3o2)cc(OC)c1OC` [Compound B30], for which the IC50 against KDR is under 300 nM; at BTK, 0.3 to 3 µM; on Syk it was under 300 nM; against SRC it was under 300 nM; in data set [1], 3000 to 50000 nM.
Take `COc1cc(-c2cc3nccc(-c4ccc5c(c4)NC(=O)C5)c3o2)cc(OC)c1OC` [Compound B71, 6-(2-(3,4,5-Trimethoxyphenyl)furo[3,2-b]pyridin-7-yl)indolin-2-one]: the IC50 against KDR was 3000 to 50000 nM; at Syk, under 300 nM; against Zap70 it was 3 to 50 µM; in data set [1], 3000 to 50000 nM.
For the molecule `COc1cc(-c2cc3nccc(-c4ccc5[nH]ccc5c4)c3o2)cc(OC)c1OC` [Compound B74, 7-(1H-Indol-5-yl)-2-(3,4,5-trimethoxyphenyl)furo[3,2-b]pyridine], the figures for the IC50 (on BTK; at Syk; in data set [1]) were 3 to 50 µM, 300 to 3000 nM and 300 to 3000 nM, respectively.
Regarding `COc1cc(-c2cc3nccc(-c4cn[nH]c4)c3o2)cc(OC)c1OC` [Compound C72], the IC50 at KDR is under 300 nM; at BTK it was 3 to 50 µM; on Syk, under 300 nM; against SRC, 300 to 3000 nM; against Zap70, 3 to 50 µM.
On to `COc1cc(-c2cc3nccc(-c4cc[nH]n4)c3o2)cc(OC)c1OC` [Compound C73], for which the concentration for half-maximal inhibition (IC50) on KDR was under 300 nM; against BTK it was 3 to 50 µM; on Syk it was under 300 nM; against SRC it was 300 to 3000 nM; against Zap70, 0.3 to 3 µM.
With `COc1cc(Nc2ncc(F)c(Nc3ccc4c(n3)NC(=O)C(C)(C)O4)n2)cc(OC)c1OC` [Compound R406], in data set [2], the “efficacy (ACR scores)” value was “ACR scores improvement” and the tolerability entry was “good tolerability”. Besides, in the data set with murine model of RA, the bone erosion entry is given as “significantly reduced” and the serum cytokine concentrations result is recorded as “significantly reduced”. Further, in the data set with murine model of RA (orally available), the clinical scores result is “significant improvement”.

One may read the IC50 as the point on the concentration scale where inhibition reaches its midpoint.

(Values after patent US9006440B2, “Furopyridine derivatives” (Merck Patent GmbH, priority 2010, dated 2015).)
